{
  "source": "patent US6548284B1",
  "about": "“Membrane-bound metalloprotease and soluble secreted form thereof” (JCR Pharmaceuticals Co., Ltd., priority 2000, dated 2003)",
  "molecules": {"B1": {"name": "soluble form of SEP (soluble secreted endopeptidase), partially purified from the conditioned medium of CHO/SEP cells (protein)", "chain": "RALRDSSLKSDICTTPSCVIAAARILENMDQSRNPCENFYQYACGGWLRHHVIPETNSRYSVFDILRDELEVILKGVLEDSTSQHRPAVEKAKTLYRSCMNQSVIEKRDSEPLLSVLKMVGGWPVALDKWNETMGLKWELERQLAVLNSQFNRRVLIDLFIWNDDQNSSRHVIYIDQPTLGMPSREYYFQEDNNHKVRKAYPEFMTSVATMLRKDQNLSKESAMVREEMAEVLELETHLANATVPQEKRHDVTALYHRMDLMELQERFGLKGFNWTLFIQNVLSSVEVELFPDEEVVVYGIPYLENLEDIIDSYSARTMQNYLVWRLVLDRIGSLSQRFKEARVDYRKALYGTTVEEVRWRECVSYVNSNMESAVGSLYIKRAFSKDSKSTVRELIEKIRSVFVDNLDELNWMDEESKKKAQEKAMNIREQIGYPDYILEDNNKHLDEEYSSLTFYEDLYFENGLQNLKNNAQRSLKKLREKVDQNLWIIGAAVVNAFYSPNRNQIVFPAGILQPPFFSKDQPQSLNFGGIGMVIGHEITHGFDDNGRNFDKNGNMLDWWSNFSARHFQQQSQCMIYQYGNFSWELADNQNVNGFSSLGENIADNGGVRQAYKAYLRWLADGGKDQRLPGLNLTYAQLFFINYAQVWCGSYRPEFAVQSIKTDVHSPLKYRVLGSLQNLPGFSEAFHCPRGSPMHPMKRCRIW"}},
  "key": {"[1]": {"target": "T1, soluble form of SEP (Mus musculus, UniProt Q9JLI3)", "T1 construct": "partially purified the soluble form of SEP from the conditioned medium of CHO/SEP cells; made in house; host or cells: CHO-K1 cells, transient transfection; conditioned medium partially purified on a wheat germ lectin column", "T1 sequence (Q9JLI3 63-765 limits assumed)": "B1 chain with L127M, P202L, S597T", "assay": "Inhibition of ET-1 degrading activity of recombinant soluble SEP", "assay_type": "biochemical", "settings": "for SEP activity: Inhibitor 100 μM, SEP partially purified from conditioned medium of CHO/SEP cells, no inhibitor = 100, unit assumed; for inhibition of SEP activity (in words) / IC50: soluble form of SEP; for inhibition of SEP activity (in words): in vitro; for IC50: ET-1 degrading activity, dose-dependent, read-out: apparent IC50, inhibition of SEP activity", "description": "(§1) Double transfection of prepro-ET-1and ECE-1a, SEP, or SEP^Δ was performed using LipofectAMINE (Life Technologies, Inc.). Twelve hours after transfection, cells were refed with fresh medium. […] For in vitro enzymological charactenization, an SEP expression construct was transiently transfected into CHO-K1 cells. The medium was conditioned for 48 h in CHO-SFM II (Life Technologies, Inc.) and was subjected to a wheat germ lectin column (1×1 ml HiTrap wheat germ lectin; Amersham Pharmacia Biotech) equilibrated with 20 mM Tris-Cl (pH 7.4) and 0.5M NaCl. The column was washed and eluted with the same buffer containing 0.5M N-acetylglucosamine. The active fraction was subsequently subjected to a Centriprep concentrator (Amicon).\n(§2) Reaction mixtures for enzyme assay (100 μl) contained 0.1 M MES-NaOH(pH 7.4), 0.5 μM peptide, and an enzyme fraction. For some experiments, the reactions were preincubated at 37° C. with various protease inhibitors for 15 min prior to the addition of the peptide. The reactions were incubated at 37° C. for 1-12 h in siliconized 0.5-ml microcentrifuge tubes. The enzyme reaction was terminated by adding 1 μl of 10 mM EDTA. The mixture was then injected into a C18 reverse-phase high pressure liquid chromatography (HPLC) column (μRPC C2/C18, ST4.6/100; Amersham Pharmacia Biotech) that was equilibrated with 10% (v/v) acetonitrile and 0.1% (v/v) trifluoroacetic acid. The column was eluted at a flow rate of 1 ml/min with a 10-80% linear gradient of acetonitrile and 0.1% trifluoroacetic acid over 43 min, followed by a 100% acetonitrile for an additional 3 min. Peptides were detected by absorbance at 220 nm.\nThe present inventors next assessed the enzymological properties of cloned SEP by using its ET-1 degrading activity."}, "[2]": {"target": "T1, soluble form of SEP", "assay": "SEP-catalyzed hydrolysis of bioactive peptides monitored by HPLC", "assay_type": "biochemical", "settings": "by recombinant soluble SEP, substrate peak area vs control", "description": "as §1, with “CHO-K1 cells were cultured [Emoto, N. et al., J. Biol. Chem., 274:1509-1518(1999)]. Double” for “Double”\nas §2\nPreviously, the present inventors have shown that ECE-1 cleaves the Trp^21-Val^22 bond of big ET-1 (1-38) to produce mature ET-1(1-21) and the C-terminal half of big ET-1(22-38) without further cleaving other parts of big ET-1 or ET-1 [Xu, D. et al., Cell, 78:473-485(1994)]. To examine the cleavage site(s) of big ET-1 and mature ET-1 by recombinant SEP in an […] assay, the present inventors partially purified the soluble form of SEP from the conditioned medium of CHO/SEP cells. The present inventors then incubated relatively large amounts of big ET-1 (10 μM) and ET-1 (1.5 μM) with partially purified SEP for a prolonged period of time (12 h) while directly monitoring the cleavage by reverse-phase HPLC. Product peaks were collected, and the peptides were identified by mass spectrometry. Big ET-1 (1-38) was hydrolyzed to a significant degree (42%) by the soluble form of SEP, and HPLC resolved at least four distinct product peaks (FIG. 7B). Two peptides products (FIG. 7C, peaks 1 and 4) were co-eluted with the standards of big ET-1 (22-38) and mature ET-1 (1-21), respectively. Analysis using mass spectrometry confirmed that they were big ET-1 (22-38) and mature ET-1(1-2 1), with an m/z value for (M+H)^+ of 1810 and 2493, respectively. These finding indicate that the soluble form of SEP can produce ET-1 by cleaving at the specific Trp^21-Val^22 site of big ET-1. On the other hand, it appears that ET-1 is further digested by the soluble form of SEP. […] These two major peaks (FIG. 7D, peaks 1 and 2) from mature ET-1 were co-eluted with the peaks (FIG. […], peaks 2 and 3, respectively) produced from big ET-1 hydrolysis. Using molecular masses, one peptide product (FIG. 7; C, peak 3, and D, peak 2) was identified as ET-1 (1-16). Another peptide product (FIG. 7; C, peak 2, and D, peak 1) appeared to be the two-chain ET-1 (1-16), which is held together by two disulfide bonds between Cys^1 and Cys^15 and between Cys^3 and Cys^11, presumably produced by cleavage at one site between Ser^4 and Glu^10 of ET-1 (1-16).\nFinally, the present inventors examined the SEP-catalyzed hydrolysis of other bioactive peptides that have been characterized as substrates of ECE-1 and/or NEP. […]"}, "[3]": {"test_system": "ECE-1 and ECE-2", "settings": "ECE-1 vs ECE-2; cited from earlier work"}, "[4]": {"target": "bradykinin, P01042", "sequence (P01042 whole entry, looked up)": "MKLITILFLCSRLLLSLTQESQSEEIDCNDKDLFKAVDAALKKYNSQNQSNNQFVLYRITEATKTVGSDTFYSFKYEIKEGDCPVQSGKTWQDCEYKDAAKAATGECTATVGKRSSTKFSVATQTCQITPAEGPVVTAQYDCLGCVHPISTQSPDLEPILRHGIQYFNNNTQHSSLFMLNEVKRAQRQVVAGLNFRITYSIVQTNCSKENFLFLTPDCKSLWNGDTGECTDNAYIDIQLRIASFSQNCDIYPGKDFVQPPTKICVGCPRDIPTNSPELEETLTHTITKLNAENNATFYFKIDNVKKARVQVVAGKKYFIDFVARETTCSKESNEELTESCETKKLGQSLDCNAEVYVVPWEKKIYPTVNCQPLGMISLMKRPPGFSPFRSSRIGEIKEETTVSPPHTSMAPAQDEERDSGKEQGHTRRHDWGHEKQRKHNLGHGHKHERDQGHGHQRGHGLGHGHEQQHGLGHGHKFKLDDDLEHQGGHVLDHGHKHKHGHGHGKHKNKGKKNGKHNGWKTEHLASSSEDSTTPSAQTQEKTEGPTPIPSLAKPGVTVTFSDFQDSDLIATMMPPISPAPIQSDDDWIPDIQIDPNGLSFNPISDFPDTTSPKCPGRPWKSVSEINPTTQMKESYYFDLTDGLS"}, "[5]": {"target": "T2, synthetic human big ET-1 (1-38), P05305", "T2 chain": "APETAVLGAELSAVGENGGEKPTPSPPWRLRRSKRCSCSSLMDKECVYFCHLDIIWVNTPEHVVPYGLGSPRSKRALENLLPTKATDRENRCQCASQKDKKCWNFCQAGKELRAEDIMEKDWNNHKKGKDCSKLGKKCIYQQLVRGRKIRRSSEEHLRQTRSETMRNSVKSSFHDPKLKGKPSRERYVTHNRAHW"}, "[6]": {"target": "atrial natriuretic peptide"}, "[7]": {"target": "T3, substance P, P20366", "T3 chain": "RPKPQQFFGLM"}, "[8]": {"target": "T4, synthetic human ET-1 (1-21), P05305", "T4 chain": "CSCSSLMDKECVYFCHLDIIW"}, "[9]": {"target": "angiotensin I, P01019", "sequence (P01019 whole entry, looked up)": "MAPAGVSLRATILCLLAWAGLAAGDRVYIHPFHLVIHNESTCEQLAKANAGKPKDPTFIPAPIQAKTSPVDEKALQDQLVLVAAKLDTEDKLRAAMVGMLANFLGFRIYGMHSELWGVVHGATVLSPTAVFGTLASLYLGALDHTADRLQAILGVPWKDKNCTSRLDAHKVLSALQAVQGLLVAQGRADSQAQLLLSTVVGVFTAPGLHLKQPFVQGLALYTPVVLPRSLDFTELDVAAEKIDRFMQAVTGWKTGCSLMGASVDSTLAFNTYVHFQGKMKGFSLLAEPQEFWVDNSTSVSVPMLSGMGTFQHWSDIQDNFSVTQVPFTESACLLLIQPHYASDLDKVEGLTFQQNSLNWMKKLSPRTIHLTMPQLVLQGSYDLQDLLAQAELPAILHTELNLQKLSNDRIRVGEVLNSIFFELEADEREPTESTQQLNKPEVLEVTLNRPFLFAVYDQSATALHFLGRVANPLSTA"}},
  "note": "Substitutions are numbered along the chain they refer to. Entries after “also recorded” stand apart in the source; their conditions may differ. Ends that are not written are not given here.",
  "data": [
    {"molecule": "c1cnc2c(c1)ccc1cccnc12", "note": "[1,10-Phenanthroline, 1,10-phenanthroline]", "values": [
      {"measurement": "SEP activity", "setting": "[1]", "result": 1, "unit": "%"},
      {"measurement": "inhibition of SEP activity (in words)", "setting": "[1]", "result": "inhibited"}
    ]},
    {"molecule": "CC[C@H](C)[C@@H]1NC(=O)[C@H](CCCNC(=N)N)NC(=O)[C@H](CC(=O)O)NC(=O)[C@H](CCSC)NC(=O)[C@H](CCCNC(=N)N)NC(=O)CNC(=O)CNC(=O)[C@H](Cc2ccccc2)NC(=O)[C@@H](NC(=O)[C@H](CO)NC(=O)[C@H](CO)NC(=O)[C@H](CCCNC(=N)N)NC(=O)[C@H](CCCNC(=N)N)NC(=O)[C@H](CC(C)C)NC(=O)[C@@H](N)CO)CSSC[C@@H](C(=O)N[C@@H](CC(N)=O)C(=O)N[C@@H](CO)C(=O)N[C@@H](Cc2ccccc2)C(=O)N[C@@H](CCCNC(=N)N)C(=O)N[C@@H](Cc2ccc(O)cc2)C(=O)O)NC(=O)CNC(=O)[C@H](CC(C)C)NC(=O)CNC(=O)[C@H](CO)NC(=O)[C@H](CCC(N)=O)NC(=O)[C@H](C)NC(=O)CNC1=O", "note": "[Atrial Natriuretic peptide]", "values": [
      {"measurement": "Hydrolysis (%)", "setting": "[2]", "result": ">95", "unit": "%"}
    ]},
    {"molecule": "C[C@H](CS)C(=O)N1CCC[C@H]1C(=O)O", "note": "[Captopril, captopril]", "values": [
      {"measurement": "SEP activity", "setting": "[1]", "result": 103, "unit": "%"},
      {"measurement": "inhibition of SEP activity (in words)", "setting": "[1]", "result": "not inhibited"}
    ]},
    {"molecule": "COc1c2c(c(O)c3c1C(O)Cc1cc(CC(C)O)c(C(=O)O)c(O)c1-3)C(=O)c1cccc(O)c1C2=O", "note": "(stereo not shown) [FR901533]", "values": [
      {"measurement": "SEP activity", "setting": "[1]", "result": 38, "unit": "%"},
      {"measurement": "inhibition of SEP activity (in words)", "setting": "[1]", "result": "not completely; also recorded: only partially inhibited"}
    ]},
    {"molecule": "CC(C)C[C@H](NP(=O)(O)O[C@@H]1O[C@@H](C)[C@H](O)[C@@H](O)[C@H]1O)C(=O)N[C@@H](Cc1c[nH]c2ccccc12)C(=O)O", "note": "[Phosphoramidon]", "values": [
      {"measurement": "sensitivity of ECE-1 to phosphoramidon lower than that of ECE-2", "setting": "[3]", "result": 250, "unit": "fold"},
      {"measurement": "SEP activity", "setting": "[1]", "result": 8, "unit": "%"},
      {"measurement": "IC50", "setting": "[1]", "result": "~6", "unit": "nM"},
      {"measurement": "inhibition of SEP activity (in words)", "setting": "[1]", "result": "inhibited"}
    ]},
    {"molecule": "O=C(O)CNC(=O)C(CS)Cc1ccccc1", "note": "(stereo not shown) [Thiorphan]", "values": [
      {"measurement": "SEP activity", "setting": "[1]", "result": 2, "unit": "%"},
      {"measurement": "IC50", "setting": "[1]", "result": "~2000", "unit": "nM"},
      {"measurement": "inhibition of SEP activity (in words)", "setting": "[1]", "result": "efficiently inhibited"}
    ]},
    {"molecule": "Angiotensin I: bioactive peptide substrate from American Peptides (DRVYIHPFHL)", "values": [
      {"measurement": "Hydrolysis (%)", "setting": "[2]", "result": ">95", "unit": "%"}
    ]},
    {"molecule": "Big endothelin-1: synthetic human big ET-1, inactive ET precursor (CSCSSLMDKECVYFCHLDIIWVNTPEHVVPYGLGSPRS; ends and bridges not checked; cysteine pairing not given here; UniProt P05305 53-90, looked up)", "values": [
      {"measurement": "Hydrolysis (%)", "setting": "[2]", "result": 42, "unit": "%"}
    ]},
    {"molecule": "Endothelin-1: human ET-1, mature endothelin peptide", "values": [
      {"measurement": "Hydrolysis (%)", "setting": "[2]", "result": 92, "unit": "%"}
    ]},
    {"molecule": "RPPGFSPFR [Bradykinin]", "values": [
      {"measurement": "Hydrolysis (%)", "setting": "[2]", "result": ">95", "unit": "%"}
    ]},
    {"molecule": "Substance P: bioactive peptide substrate from American Peptides", "values": [
      {"measurement": "Hydrolysis (%)", "setting": "[2]", "result": ">95", "unit": "%"}
    ]},
    {"molecule": "B1", "values": [
      {"measurement": "Hydrolysis (%)", "setting": "[4]", "result": "> 95", "unit": "%"},
      {"measurement": "Hydrolysis (%)", "setting": "[5]", "result": 42, "unit": "%"},
      {"measurement": "Hydrolysis (%)", "setting": "[6]", "result": "> 95", "unit": "%"},
      {"measurement": "Hydrolysis (%)", "setting": "[7]", "result": "> 95", "unit": "%"},
      {"measurement": "Hydrolysis (%)", "setting": "[8]", "result": 92, "unit": "%"},
      {"measurement": "Hydrolysis (%)", "setting": "[9]", "result": "> 95", "unit": "%"}
    ]}
  ]
}
